Structures can show the parent of a compound that is named as a salt.
Legend:
[1] = test system: HUVEC; assay: Endothelial migration and chemotaxis assay (cancer cell-free); type: cell-based, human; conditions: LRP8 receptor-dependent
Method: Serum-starved HUVEC's were pulsed with Cell Tracker Red CMTPX dye for 45 minutes and seeded into HTS Fluoroblock trans-well inserts at a concentration of 1×10^5 HUVEC's in 0.5 mL starvation media per each insert. The assay was allowed to proceed for 16-18 hours at 37° C., and the inserts were processed and analyzed as described above (See Matrigel Invasion Assay).
HUVEC's were serum-starved in 0.2% FBS EGM-2 media for 16 hours and labeled with Cell Tracker Red CMTPX dye for 45 minutes. Meanwhile, the indicated amounts (1-5 μg) of recombinant human ApoE3 or BSA were mixed with 250 μL of matrigel (356231, BD Biosciences) and allowed to solidify at the bottom of a 24-well plate for 30 min. 250 μL of HUVEC EGM-2 media containing 0.2% FBS was then added to each matrigel-coated well, and […] HTS Fluoroblock inserts were fitted into each well. 1×10^5 HUVEC's, resuspended in 0.5 mL of starvation media, were seeded into each insert and allowed to migrate along the matrigel gradient for 16-18 hours at 37° C. Upon completion of the assay, the inserts were mounted on slides and analyzed as described above (See Matrigel Invasion Assay).

[2] = test system: MeWo-LM2 cells, MeWo brain metastatic derivative cells; assay: Systemic and brain metastasis after intracardiac injection into athymic nude mice; type: in vivo, human; conditions: diet 100 mg/kg
Method: After 8 hours, the transfection media was replaced with fresh media. After 48 hours, 1×10^5 cells were injected intravenously into NOD-SCID mice to assess lung metastatic colonization or through intracardiac injection into athymic nude mice to assess systemic metastasis. For cell invasion and endothelial recruitment in vitro assays, the cells were used 96 hours post-transfection.
Melanoma cells used for in vivo metastasis assays were transduced with a stably expressed retroviral construct encoding a luciferase reporter gene (Ponomarev et al., 2004), allowing us to monitor the in vivo progression of melanoma cells by bioluminescence imaging. The following numbers of melanoma cells, resuspended in 100 μL, of PBS, were injected intravenously via the tail-vein: 4×10^4 MeWo cells, 2.5×10^5 HT-144 cells, 2×10^5 SK-Mel-334.2 cells, 5×10^4B16F10 cells, and 1×10^5 YUMM cells. The MeWo, HT-144, and SK-Mel-334.2 cells were injected into 6-8 week-old sex-matched NOD scid mice, while the B16F10 and YUMM cells were injected into 6-8 week-old sex-matched C57BL/6 mice. […] To assess the effect of GW3965 treatment on brain metastasis, 1×10^5 MeWo brain-metastatic derivatives were injected intracardially into athymic nude mice. Immediately following injection, mice were randomly assigned to a control diet or GW3965-supplemented diet (100 mg/kg). […]

Compound | endothelial migration in trans-well and gradient-based chemotactic assay [1] | systemic dissemination and brain colonization [2]
recombinant human ApoE3: recombinant human ApoE3 (4696, BioVision) | sufficient to inhibit | 
O=C(O)Cc1cccc(OCCCN(Cc2cccc(C(F)(F)F)c2Cl)CC(c2ccccc2)c2ccccc2)c1 [GW3965 2, 3-[3-[N-(2-Chloro-3-trifluoromethylbenzyl)-(2,2-diphenylethyl)amino]propyloxy]phenylacetic acid hydrochloride] |  | inhibited

Source: patent US9399028B2, “Treatment of drug resistant cancer” (ROCKEFELLER UNIVERSITY (THE), priority 2012, dated 2016)
